This is an account of results in PMC6437697 (Journal of Medicinal Chemistry, 2019).

Assay in all cases: KINOMEscan
What all share (assay type): binding
Common to all, as to settings: read-out: % control activity remaining

One test deals with T1, CDK2 (Homo sapiens, UniProt P24941).
T1 construct: purchased Eurofins DiscoverX KINOMEscan

In another test the target is T2, FLT4 (Homo sapiens, UniProt P35916).
T2 construct: purchased Eurofins DiscoverX KINOMEscan

In a further test the target is T3, ACVR1 (Homo sapiens, UniProt Q04771).
T3 construct: purchased Eurofins DiscoverX KINOMEscan
T3 sequence (Q04771 21-509): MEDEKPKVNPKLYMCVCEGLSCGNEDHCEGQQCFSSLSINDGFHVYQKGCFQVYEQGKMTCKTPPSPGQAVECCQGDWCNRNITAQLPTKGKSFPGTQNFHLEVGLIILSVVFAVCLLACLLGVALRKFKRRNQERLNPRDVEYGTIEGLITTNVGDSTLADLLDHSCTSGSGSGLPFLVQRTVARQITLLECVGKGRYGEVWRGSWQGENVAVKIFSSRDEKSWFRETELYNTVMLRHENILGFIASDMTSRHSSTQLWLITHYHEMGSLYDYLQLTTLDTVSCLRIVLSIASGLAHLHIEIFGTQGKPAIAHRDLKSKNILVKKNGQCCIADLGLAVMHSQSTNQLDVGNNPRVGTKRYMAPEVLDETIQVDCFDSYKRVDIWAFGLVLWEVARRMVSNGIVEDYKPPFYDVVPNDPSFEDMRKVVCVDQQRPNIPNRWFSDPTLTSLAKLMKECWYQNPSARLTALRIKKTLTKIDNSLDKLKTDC

The target of the next test is T4, PIK3CB (Homo sapiens, UniProt P42338).
T4 construct: purchased Eurofins DiscoverX KINOMEscan

Another test concerns the target T5, CDC2L2 (Homo sapiens, UniProt Q9UQ88).
T5 construct: purchased Eurofins DiscoverX KINOMEscan
T5 sequence (Q9UQ88 1-783): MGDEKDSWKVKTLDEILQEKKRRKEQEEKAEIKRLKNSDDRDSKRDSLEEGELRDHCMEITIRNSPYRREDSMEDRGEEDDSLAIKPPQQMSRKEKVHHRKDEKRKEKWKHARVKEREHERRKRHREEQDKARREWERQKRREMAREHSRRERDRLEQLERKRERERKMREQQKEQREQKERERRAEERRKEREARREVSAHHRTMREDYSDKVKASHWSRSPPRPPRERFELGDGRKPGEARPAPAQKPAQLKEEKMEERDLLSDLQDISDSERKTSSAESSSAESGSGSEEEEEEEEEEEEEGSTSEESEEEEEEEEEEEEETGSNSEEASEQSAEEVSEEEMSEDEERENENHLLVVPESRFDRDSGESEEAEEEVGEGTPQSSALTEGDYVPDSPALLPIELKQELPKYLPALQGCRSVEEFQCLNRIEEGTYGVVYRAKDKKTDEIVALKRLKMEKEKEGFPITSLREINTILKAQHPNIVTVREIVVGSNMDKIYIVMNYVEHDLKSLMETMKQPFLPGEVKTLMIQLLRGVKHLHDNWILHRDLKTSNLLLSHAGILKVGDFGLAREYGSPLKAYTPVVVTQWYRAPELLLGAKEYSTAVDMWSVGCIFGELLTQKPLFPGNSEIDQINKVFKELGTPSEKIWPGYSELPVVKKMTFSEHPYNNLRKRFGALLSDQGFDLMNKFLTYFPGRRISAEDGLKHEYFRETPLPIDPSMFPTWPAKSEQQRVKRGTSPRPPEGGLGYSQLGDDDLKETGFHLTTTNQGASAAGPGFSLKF

The next test addresses T6, TAOK2 (Homo sapiens, UniProt Q9UL54).
T6 construct: purchased Eurofins DiscoverX KINOMEscan
T6 sequence (Q9UL54 1-1235): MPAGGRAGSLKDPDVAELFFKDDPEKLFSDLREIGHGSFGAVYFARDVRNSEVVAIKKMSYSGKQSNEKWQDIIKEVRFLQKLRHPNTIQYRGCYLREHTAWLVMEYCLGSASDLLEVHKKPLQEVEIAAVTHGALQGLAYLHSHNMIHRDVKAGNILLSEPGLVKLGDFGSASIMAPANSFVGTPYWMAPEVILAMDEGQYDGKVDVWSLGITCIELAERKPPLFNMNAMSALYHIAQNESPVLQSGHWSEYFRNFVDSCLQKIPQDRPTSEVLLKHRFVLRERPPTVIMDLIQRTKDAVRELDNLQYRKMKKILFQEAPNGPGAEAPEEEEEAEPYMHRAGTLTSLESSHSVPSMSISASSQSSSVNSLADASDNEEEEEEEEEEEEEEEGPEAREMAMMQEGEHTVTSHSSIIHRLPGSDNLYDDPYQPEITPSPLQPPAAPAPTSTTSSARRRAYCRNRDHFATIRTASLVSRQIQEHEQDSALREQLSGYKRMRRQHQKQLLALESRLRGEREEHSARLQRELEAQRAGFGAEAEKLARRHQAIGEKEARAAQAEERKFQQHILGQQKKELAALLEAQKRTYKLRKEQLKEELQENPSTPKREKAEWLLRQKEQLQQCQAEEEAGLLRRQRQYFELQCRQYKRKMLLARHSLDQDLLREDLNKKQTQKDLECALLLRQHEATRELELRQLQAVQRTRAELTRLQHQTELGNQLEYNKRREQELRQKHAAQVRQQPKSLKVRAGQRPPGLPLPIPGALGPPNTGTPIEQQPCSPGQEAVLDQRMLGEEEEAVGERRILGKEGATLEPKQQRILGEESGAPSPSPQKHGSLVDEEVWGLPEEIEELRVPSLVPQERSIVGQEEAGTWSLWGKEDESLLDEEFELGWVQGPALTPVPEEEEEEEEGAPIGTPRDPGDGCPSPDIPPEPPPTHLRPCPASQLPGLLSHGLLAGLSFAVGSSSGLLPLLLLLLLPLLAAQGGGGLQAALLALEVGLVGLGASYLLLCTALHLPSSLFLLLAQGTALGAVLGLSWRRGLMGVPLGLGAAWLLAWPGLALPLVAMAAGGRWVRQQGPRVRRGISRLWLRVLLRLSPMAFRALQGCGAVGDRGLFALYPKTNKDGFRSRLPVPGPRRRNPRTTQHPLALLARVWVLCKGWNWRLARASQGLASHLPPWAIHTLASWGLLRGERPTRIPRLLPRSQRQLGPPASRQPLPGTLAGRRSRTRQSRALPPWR

T4 sequence (P42338 whole entry): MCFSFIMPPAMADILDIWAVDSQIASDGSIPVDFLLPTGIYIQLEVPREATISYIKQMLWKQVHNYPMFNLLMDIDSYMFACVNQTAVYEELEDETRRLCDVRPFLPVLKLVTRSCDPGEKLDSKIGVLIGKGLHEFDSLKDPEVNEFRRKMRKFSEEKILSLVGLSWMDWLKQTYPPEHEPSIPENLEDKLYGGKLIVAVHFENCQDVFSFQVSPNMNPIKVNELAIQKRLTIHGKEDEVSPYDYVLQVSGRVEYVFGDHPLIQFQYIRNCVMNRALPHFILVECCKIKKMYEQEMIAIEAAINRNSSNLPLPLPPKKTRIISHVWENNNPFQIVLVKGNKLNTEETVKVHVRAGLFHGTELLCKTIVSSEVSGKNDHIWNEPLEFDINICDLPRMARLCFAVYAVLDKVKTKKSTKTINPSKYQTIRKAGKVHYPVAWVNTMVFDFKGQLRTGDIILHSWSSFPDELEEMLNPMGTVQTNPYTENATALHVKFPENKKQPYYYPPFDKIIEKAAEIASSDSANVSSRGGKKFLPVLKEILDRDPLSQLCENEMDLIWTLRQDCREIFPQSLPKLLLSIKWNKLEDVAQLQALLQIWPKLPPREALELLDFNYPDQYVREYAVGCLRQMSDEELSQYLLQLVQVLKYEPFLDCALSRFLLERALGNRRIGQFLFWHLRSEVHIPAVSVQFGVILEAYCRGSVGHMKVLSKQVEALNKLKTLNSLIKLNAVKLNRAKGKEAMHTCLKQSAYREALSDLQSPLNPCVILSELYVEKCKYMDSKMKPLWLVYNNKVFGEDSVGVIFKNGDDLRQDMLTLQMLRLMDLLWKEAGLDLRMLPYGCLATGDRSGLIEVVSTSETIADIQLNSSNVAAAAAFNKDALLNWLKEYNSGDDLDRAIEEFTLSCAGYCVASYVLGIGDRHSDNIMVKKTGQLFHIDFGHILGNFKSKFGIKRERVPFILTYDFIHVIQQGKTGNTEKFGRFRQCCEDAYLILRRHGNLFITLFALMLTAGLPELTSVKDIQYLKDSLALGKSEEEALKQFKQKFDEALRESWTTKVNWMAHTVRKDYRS
T2 sequence (P35916 25-1363): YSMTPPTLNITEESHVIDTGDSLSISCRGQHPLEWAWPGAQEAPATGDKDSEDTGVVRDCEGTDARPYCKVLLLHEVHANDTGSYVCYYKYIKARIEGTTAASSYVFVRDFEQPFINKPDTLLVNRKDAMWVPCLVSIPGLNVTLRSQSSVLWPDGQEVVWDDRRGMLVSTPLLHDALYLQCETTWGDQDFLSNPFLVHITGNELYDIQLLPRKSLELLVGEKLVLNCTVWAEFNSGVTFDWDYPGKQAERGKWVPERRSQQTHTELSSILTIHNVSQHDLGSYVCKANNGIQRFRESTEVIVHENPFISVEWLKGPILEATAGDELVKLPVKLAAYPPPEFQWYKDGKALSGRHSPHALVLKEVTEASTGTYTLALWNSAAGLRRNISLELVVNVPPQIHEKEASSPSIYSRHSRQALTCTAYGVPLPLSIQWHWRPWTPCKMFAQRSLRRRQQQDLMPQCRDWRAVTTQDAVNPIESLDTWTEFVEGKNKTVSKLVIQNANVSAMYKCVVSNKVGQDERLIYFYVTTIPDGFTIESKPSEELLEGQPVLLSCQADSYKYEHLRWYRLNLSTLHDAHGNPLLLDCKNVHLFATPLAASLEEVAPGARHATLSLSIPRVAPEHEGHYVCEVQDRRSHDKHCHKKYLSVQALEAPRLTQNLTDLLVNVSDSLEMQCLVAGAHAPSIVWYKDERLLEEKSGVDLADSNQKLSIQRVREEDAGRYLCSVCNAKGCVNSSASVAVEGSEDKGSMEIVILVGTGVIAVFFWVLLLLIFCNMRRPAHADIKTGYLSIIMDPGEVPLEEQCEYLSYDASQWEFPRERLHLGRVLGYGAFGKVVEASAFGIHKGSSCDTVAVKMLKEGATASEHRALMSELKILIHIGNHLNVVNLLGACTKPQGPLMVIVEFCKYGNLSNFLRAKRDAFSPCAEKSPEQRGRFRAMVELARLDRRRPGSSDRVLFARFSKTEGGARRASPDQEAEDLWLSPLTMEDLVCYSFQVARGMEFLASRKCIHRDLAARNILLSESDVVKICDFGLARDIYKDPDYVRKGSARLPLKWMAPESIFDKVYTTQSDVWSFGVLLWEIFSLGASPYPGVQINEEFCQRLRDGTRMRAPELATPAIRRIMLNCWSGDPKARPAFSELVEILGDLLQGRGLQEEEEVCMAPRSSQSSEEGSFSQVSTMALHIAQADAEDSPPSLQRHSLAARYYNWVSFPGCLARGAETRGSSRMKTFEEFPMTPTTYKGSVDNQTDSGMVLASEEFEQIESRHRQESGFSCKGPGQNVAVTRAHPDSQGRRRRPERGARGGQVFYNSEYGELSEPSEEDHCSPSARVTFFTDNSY

With `Clc1cc(NCC2CC2)c2ncc(-c3ccc4[nH]ncc4c3)n2n1` [compound 2, 6-Chloro-N-(cyclopropylmethyl)-3-(1H-indazol-5-yl)imidazo[1,2-b]pyridazin-8-amine], the remaining binding at 1 µM at CDK2 is 88%; on FLT4, 95%; at ACVR1 it was 90%; at PIK3CB it was 82%; on CDC2L2 it was 100%; on TAOK2 it was 87%.
On to `O=C(CN1CCOCC1)N[C@H]1CC[C@H](Nc2cc(Cl)nn3c(-c4ccc5[nH]ncc5c4)cnc23)CC1` [compound 26], for which the remaining binding at 1 µM on CDK2 stood at 95%; at FLT4 it was 83%; on ACVR1 it was 95%; at PIK3CB, 93%; on CDC2L2 it was 99%; at TAOK2, 100%.
On to `CN1CCC(CNc2cc(Cl)nn3c(-c4cc5nc(Nc6ccccc6)[nH]c5cc4F)cnc23)CC1` [compound 31, 6-Chloro-3-(6-fluoro-2-(phenylamino)-1H-benzo[d]imidazol-5-yl)-N-((1-methylpiperidin-4-yl)methyl)imidazo[1,2-b]pyridazin-8-amine], for which the remaining binding at 1 µM at CDK2 was 98%; on FLT4, 100%; at ACVR1 it was 99%; on PIK3CB, 97%; at CDC2L2, 90%; on TAOK2 it was 98%.
